Patent US20110182850A1, “ORGANIC COMPOUNDS AND THEIR USES” (priority 2009, published 2011)
Like-named read-outs stand apart in the source and are kept apart here.

Tests used:
in vivo = test: in vivo; parameters: species or system Sprague Dawley rats; conditions: rat; for Cmax: Sprague Dawley, po, 10 mg/kg
Protocol: Certain compounds of Table A and Comparative Example 1 (Compound A-7 of copending international patent application serial no. PCT/EP08/063,460) are administered as a solution orally via gavage at 10 mg/kg to Sprague Dawley rats at a dosing volume of 10 ml/kg. Samples are collected via a surgically implanted cannula at selected timepoints deemed necessary to characterize pharmacokinetic parameters. Blood samples are placed on wet ice and spun down to plasma within 5 minutes of timepoint collection. Plasma samples are frozen until bioanalytical analysis.
Certain compounds of Table A and Comparative Example 1 are administered intravenously into a surgically implanted cannula as a solution at 1 mg/kg to Sprague Dawley rats at a dosing volume of […]. Samples are collected via another surgically implanted cannula at selected timepoints deemed necessary to characterize pharmacokinetic parameters. Blood samples are placed on wet ice and spun down to plasma within 5 minutes of timepoint collection. Plasma samples are frozen until bioanalytical analysis.

[1] = Measurement of thermodynamic solubility; type: physicochemical; conditions: thermodynamic from solid, read-out: solubility in water
Protocol: Thermodynamic solubility for the compounds of the invention listed in Table C is measured by a published literature procedure, e.g., Liping Zhou, et al., J. Pharm. Sci (2007) 96(11): 3052-3071.
The DMSO stocks of test compounds previously dissolved in 25 μL of DMSO (˜10 mM) in mini-prep vial (MPV: Whatman, with PVDF filter and 0.45 μm pore size) chamber were evaporated via a GeneVac HT-4X evaporator for approximately 1 hour, at the guard temperature of 30° C. An aliquot of 250 μL buffer solution (pH 1.0 or 6.8) was added into each MPV chamber containing powders reconstituted from DMSO stock solutions. The MPV filter plungers were pushed down into the chamber until the membrane of the filter plunger slightly touched the surface of the buffer to promote equilibrium between the two compartments and to minimize the adsorption due to non-specific binding of samples during the subsequent 24-hr incubation (at 600 RPM at room temperature). Immediately after the 24-hr incubation, the plungers were further pushed down to the bottom of the chambers. More solution was pushed through the membrane and entered the plunger compartment. The filter/chamber assemblies were then put on a shaker for another 30 minutes at 600 RPM. Afterwards, filtrates were further diluted (1:10) with 50/50 acetonitrile/water solvent followed by a thorough mixing process. Both plates with diluted and undiluted filtrates were analyzed by HPLC and quantified against the four-point standard dilution curve of the same test compound (5 μM, 35 μM, 65 μM and 100 μM, respectively). In the current study, solubility reflects the average of triplicate samples tested at each pH.

[2] = biological target: T1, HCV NS3-4A serine protease (full-length NS3-4A protein, genotype 1a, strain HCV-1) (Hepatitis C virus genotype 1a, UniProt P26664); test: HCV NS3-4A protease assay; type: biochemical; conditions: Protease IC50
T1 construct: using the full-length NS3-4A protein (genotype 1a, strain HCV-1)
Protocol: The inhibitory activity of certain compounds of Table A against HCV NS3-4A serine protease is determined in a homogenous assay using the full-length NS3-4A protein (genotype 1a, strain HCV-1) and a commercially available internally-quenched fluorogenic peptide substrate as described by Taliani, M., et al. 1996 Anal. Biochem. 240:60-67, which is incorporated by reference in its entirety.

[3] = pH 1, simulated gastric fluid, pH of about 1
[4] = pH 6.8, aqueous buffer, pH of about 6.8

T1 sequence (P26664 1658-1711): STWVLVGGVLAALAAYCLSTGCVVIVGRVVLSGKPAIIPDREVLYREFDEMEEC
T1 sequence (P26664 1027-1657): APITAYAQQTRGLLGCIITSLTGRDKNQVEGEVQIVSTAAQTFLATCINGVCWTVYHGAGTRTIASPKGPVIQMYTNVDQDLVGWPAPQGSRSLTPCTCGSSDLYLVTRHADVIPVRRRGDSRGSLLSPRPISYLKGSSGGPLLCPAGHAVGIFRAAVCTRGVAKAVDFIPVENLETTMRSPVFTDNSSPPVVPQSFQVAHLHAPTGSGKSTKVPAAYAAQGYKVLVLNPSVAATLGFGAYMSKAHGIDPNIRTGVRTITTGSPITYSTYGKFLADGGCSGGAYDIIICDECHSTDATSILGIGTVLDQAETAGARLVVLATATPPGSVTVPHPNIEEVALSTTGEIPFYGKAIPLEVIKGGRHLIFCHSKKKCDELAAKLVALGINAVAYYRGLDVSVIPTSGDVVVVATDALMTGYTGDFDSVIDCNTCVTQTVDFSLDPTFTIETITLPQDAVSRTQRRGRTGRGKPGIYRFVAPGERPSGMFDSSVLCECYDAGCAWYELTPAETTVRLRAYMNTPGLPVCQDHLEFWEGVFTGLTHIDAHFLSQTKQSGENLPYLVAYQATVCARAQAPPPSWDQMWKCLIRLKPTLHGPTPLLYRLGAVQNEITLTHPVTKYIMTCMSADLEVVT

| bioavailability (in vivo) [%] | SMILES | Cmax (in vivo) [nM] | solubility at 24 h [1, 3] [µM] | solubility at 24 h [1, 4] [µM] | IC50 [2] [nM] |
| --- | --- | --- | --- | --- | --- |
| – | C=C[C@@H]1C[C@]1(NC(=O)[C@@H]1C[C@@]2(CN1C(=O)[C@@H](NC(=O)[C@@H](NC(=O)[C@@H]1CCCCN1C(C)C)C1CCCCC1)C(C)(C)C)C(C)(C)C21CCC1)C(=O)NS(=O)(=O)C1(C)CC1 [Compound 63, (5R,8S)-7-[(2S)-2-{[(2S)-2-cyclohexyl-2-({[(2S)-1-isopropylpiperidin-2-yl]carbonyl}amino)acetyl]amino}-3,3-dimethylbutanoyl]-10,10-dimethyl-N-[(1R,2S)-1-{[(1-methylcyclopropyl)sulfonyl]carbamoyl}-2-vinylcyclopropyl]-7-azadispiro[3.0.4.1]decane-8-carboxamide] | 320 | ≥ 100 | ≥ 30 | 1.8 |
| – | C=C[C@@H]1C[C@]1(NC(=O)[C@@H]1C[C@@]2(CN1C(=O)[C@@H](NC(=O)[C@@H](NC(=O)[C@@H]1CCCCN1CC)C1CCCCC1)C(C)(C)C)C(C)(C)C21CCC1)C(=O)NS(=O)(=O)C1(CCC)CC1 [Compound 67, (5R,8S)-7-[(2S)-2-{[(2S)-2-cyclohexyl-2-({[(2S)-1-ethylpiperidin-2-yl]carbonyl}amino)acetyl]amino}-3,3-dimethylbutanoyl]-10,10-dimethyl-N-[(1R,2S)-1-{[(1-propylcyclopropyl)sulfonyl]carbamoyl}-2-vinylcyclopropyl]-7-azadispiro[3.0.4.1]decane-8-carboxamide] | – | ≥ 100 | ≥ 30 | 1.5 |
| – | C=C[C@@H]1C[C@]1(NC(=O)[C@@H]1C[C@@]2(CN1C(=O)[C@@H](NC(=O)[C@@H](NC(=O)[C@@H]1CCCCN1C(C)C)C1CCCCC1)C(C)(C)C)C(C)(C)C21CCC1)C(=O)NS(=O)(=O)C1(CCC)CC1 [Compound 68, (5R,8S)-7-[(2S)-2-{[(2S)-2-cyclohexyl-2-({[(2S)-1-isopropylpiperidin-2-yl]carbonyl}amino)acetyl]amino}-3,3-dimethylbutanoyl]-10,10-dimethyl-N-[(1R,2S)-1-{[(1-propylcyclopropyl)sulfonyl]carbamoyl}-2-vinylcyclopropyl]-7-azadispiro[3.0.4.1]decane-8-carboxamide] | 348 | ≥ 100 | ≥ 30 | 4 |
| – | C=C[C@@H]1C[C@]1(NC(=O)[C@@H]1C[C@@]2(CN1C(=O)[C@@H](NC(=O)[C@@H](NC(=O)[C@@H]1CCCN1CC)C1CCCCC1)C(C)(C)C)C(C)(C)C21CCC1)C(=O)NS(=O)(=O)C1(CCC)CC1 [Compound 69, (5R,8S)-7-[(2S)-2-{[(2S)-2-cyclohexyl-2-({[(2S)-1-ethylpyrrolidin-2-yl]carbonyl}amino)acetyl]amino}-3,3-dimethylbutanoyl]-10,10-dimethyl-N-[(1R,2S)-1-{[(1-propylcyclopropyl)sulfonyl]carbamoyl}-2-vinylcyclopropyl]-7-azadispiro[3.0.4.1]decane-8-carboxamide] | – | ≥ 100 | ≥ 30 | 1.5 |
| – | CC[C@@H]1C[C@]1(NC(=O)[C@@H]1C[C@@]2(CN1C(=O)[C@@H](NC(=O)[C@@H](NC(=O)[C@@H]1CCCCN1C(C)C)C1CCCCC1)C(C)(C)C)C(C)(C)C21CCC1)C(=O)NS(=O)(=O)C1(C)CC1 [Compound 70, (5R,8S)-7-[(2S)-2-{[(2S)-2-cyclohexyl-2-({[(2S)-1-isopropylpiperidin-2-yl]carbonyl}amino)acetyl]amino}-3,3-dimethylbutanoyl]-N-[(1R,2R)-2-ethyl-1-{[(1-methylcyclopropyl)sulfonyl]carbamoyl}cyclopropyl]-10,10-dimethyl-7-azadispiro[3.0.4.1]decane-8-carboxamide] | 130 | ≥ 100 | ≥ 30 | 2 |
| – | C=C[C@@H]1C[C@]1(NC(=O)[C@@H]1C[C@@]2(CN1C(=O)[C@@H](NC(=O)[C@@H](NC(=O)[C@@H]1CCCN1CC)C1CCCCC1)C(C)(C)C)C(C)(C)C21CCC1)C(=O)NS(=O)(=O)C1(C)CC1 [Compound 71, (5R,8S)-7-[(2S)-2-{[(2S)-2-cyclohexyl-2-({[(2S)-1-ethylpyrrolidin-2-yl]carbonyl}amino)acetyl]amino}-3,3-dimethylbutanoyl]-10,10-dimethyl-N-[(1R,2S)-1-{[(1-methylcyclopropyl)sulfonyl]carbamoyl}-2-vinylcyclopropyl]-7-azadispiro[3.0.4.1]decane-8-carboxamide] | – | ≥ 100 | ≥ 30 | 0.3 |
| – | C=C[C@@H]1C[C@]1(NC(=O)[C@@H]1C[C@@]2(CN1C(=O)[C@@H](NC(=O)[C@@H](NC(=O)[C@H]1CCCCN1C(C)C)C1CCCCC1)C(C)(C)C)C(C)(C)C21CCC1)C(=O)NS(=O)(=O)C1(C)CC1 [Compound 74, (5R,8S)-7-[(2S)-2-{[(2S)-2-cyclohexyl-2-({[(2R)-1-isopropylpiperidin-2-yl]carbonyl}amino)acetyl]amino}-3,3-dimethylbutanoyl]-10,10-dimethyl-N-[(1R,2S)-1-{[(1-methylcyclopropyl)sulfonyl]carbamoyl}-2-vinylcyclopropyl]-7-azadispiro[3.0.4.1]decane-8-carboxamide] | – | ≥ 100 | ≥ 30 | 0.8 |
| – | CCCC1(S(=O)(=O)NC(=O)[C@@]2(NC(=O)[C@@H]3C[C@@]4(CN3C(=O)[C@@H](NC(=O)[C@@H](NC(=O)[C@@H]3CCCCN3CC)C3CCCCC3)C(C)(C)C)C(C)(C)C43CCC3)C[C@H]2CC)CC1 [Compound 76, (5R,8S)-7-[(2S)-2-{[(2S)-2-cyclohexyl-2-({[(2S)-1-ethylpiperidin-2-yl]carbonyl}amino)acetyl]amino}-3,3-dimethylbutanoyl]-N-[(1R,2R)-2-ethyl-1-{[(1-propylcyclopropyl)sulfonyl]carbamoyl}cyclopropyl]-10,10-dimethyl-7-azadispiro[3.0.4.1]decane-8-carboxamide] | – | ≥ 100 | ≥ 30 | 6 |
| – | CCCC1(S(=O)(=O)NC(=O)[C@@]2(NC(=O)[C@@H]3C[C@@]4(CN3C(=O)[C@@H](NC(=O)[C@@H](NC(=O)[C@@H]3CCCCN3C(C)C)C3CCCCC3)C(C)(C)C)C(C)(C)C43CCC3)C[C@H]2CC)CC1 [Compound 77, (5R,8S)-7-[(2S)-2-{[(2S)-2-cyclohexyl-2-({[(2S)-1-isopropylpiperidin-2-yl]carbonyl}amino)acetyl]amino}-3,3-dimethylbutanoyl]-N-[(1R,2R)-2-ethyl-1-{[(1-propylcyclopropyl)sulfonyl]carbamoyl}cyclopropyl]-10,10-dimethyl-7-azadispiro[3.0.4.1]decane-8-carboxamide] | – | ≥ 100 | ≥ 30 | 2 |
| – | CC[C@@H]1C[C@]1(NC(=O)[C@@H]1C[C@@]2(CN1C(=O)[C@@H](NC(=O)[C@@H](NC(=O)[C@@H]1CCCN1C(C)C)C1CCCCC1)C(C)(C)C)C(C)(C)C21CCC1)C(=O)NS(=O)(=O)C1(C)CC1 [Compound 82, (5R,8S)-7-[(2S)-2-{[(2S)-2-cyclohexyl-2-({[(2S)-1-isopropylpyrrolidin-2-yl]carbonyl}amino)acetyl]amino}-3,3-dimethylbutanoyl]-N-[(1R,2R)-2-ethyl-1-{[(1-methylcyclopropyl)sulfonyl]carbamoyl}cyclopropyl]-10,10-dimethyl-7-azadispiro[3.0.4.1]decane-8-carboxamide] | – | ≥ 100 | ≥ 30 | 2.4 |
| 2 | C=C[C@@H]1C[C@]1(NC(=O)[C@@H]1C[C@@]2(CN1C(=O)[C@@H](NC(=O)OC(C)(C)C)C(C)C)C(C)(C)C21CCC1)C(=O)NS(=O)(=O)C1CC1 [compound 1, tert-butyl [(1S)-1-{[(5R,8S)-8-({(1R,2S)-1-[(cyclopropylsulfonyl)carba-moyl]-2-vinylcyclopropyl}carbamoyl)-10,10-dimethyl-7-azadispiro[3.0.4.1]dec-7-yl]carbonyl}-2-methylpropyl]carbamate, reference compound] | – | – | – | – |
